According to patent US20130253047A1 (priority 2006, published 2013):

These compounds were tested on H5N1.
Type: cell-based

Compound | inhibition of H5N1 infections in mammalian cells by blocking the attachment and entry into the cells
O=C(O[C@@H]1Cc2c(O)cc(O)cc2O[C@@H]1c1cc(=O)c(O)c2c(O)c(O)cc([C@H]3Oc4cc(O)cc(O)c4C[C@H]3O)c2c1)c1cc(O)c(O)c(O)c1 [theaflavin-3 gallate] | inhibits H5N1 infections in mammalian cells
(−)-epigallocatechin gallate | inhibits H5N1 infections in mammalian cells
theaflavin-3,3′-digallate | inhibits H5N1 infections in mammalian cells
O=c1c(O)cc([C@H]2Oc3cc(O)cc(O)c3C[C@H]2O)cc2c([C@H]3Oc4cc(O)cc(O)c4C[C@H]3O)cc(O)c(O)c12 [theaflavin] | inhibits H5N1 infections in mammalian cells
theaflavin-3′-gallate | inhibits H5N1 infections in mammalian cells
